Values quoted from earlier work as cited in patent publication US20050038042A1, “Modified release composition comprising a short-acting hypnotic for treatment of sleep disorders” (priority 2002, published 2005).

Experiments:
[1] = compared with marketed benzodiazepines
[2] = in humans

## CCN(C(C)=O)c1cccc(-c2ccnc3c(C#N)cnn23)c1 [Zaleplon, N-[3-(3-cyanopyrazolo[1,5-a]pyrimidin-7-yl)phenyl]-N-ethylacetamide]
Clinical trials
  effect on sleep onset: effective in shortening sleep onset
Clinical trials, versus previously available benzodiazepine or nonbenzodiazepine hypnotics
  safety profile: more favorable safety profile
Controlled clinical studies
  period over which decreased time to sleep onset was shown: up to 28 days
human, in vivo
  mean duration of effect: 4 to 5 h
Patients with sleep disorders
  total sleep time / number of awakenings: not been shown to consistently increase total sleep time or decrease the number of awakenings
[1]
  effects in animal models: sedative, anxiolytic, myorelaxant, and anticonvulsive effects similar to those of marketed benzodiazepines
[2]
  time to maximum plasma concentration (tmax): 48 min
